Patent US20180153848A1, “CABAZITAXEL FAT EMULSION, AND PREPARATION METHOD AND USE THEREOF” (JIANGSU TASLY DIYI PHARMACEUTICAL CO., LTD., priority 2015, published 2018)

How the values were obtained:
[1] = cited from earlier work
[2] = Investigation on the solubility of cabazitaxel in oils for injection, with low temperature challenge test; assay type: physicochemical; design: key to dissolved state in oil for injection: —: Completely insoluble; conditions: for dissolved state in oil for injection: 70° C. with stirring
Description: In this Test Example, appropriate amounts of cabazitaxel were weighed, respectively placed into medium chain triglyceride for injection, soybean oil, olive oil, castor oil and palm oil at 70° C., and heated with stirring, to observe the dissolved state thereof. The solutions with the drug dissolved were stored at a condition of 4-6° C. for 72 hours, to perform a low temperature challenge test. The appearance changes of the solutions at 72 hours in the low temperature storage were observed.

Beagle dogs = conditions: intravenous injection of 0.3% or 0.35% Tween-80; cited from earlier work

CO[C@H]1C(=O)[C@]2(C)[C@@H](OC)C[C@H]3OC[C@@]3(OC(C)=O)[C@H]2[C@H](OC(=O)c2ccccc2)[C@]2(O)C[C@H](OC(=O)[C@H](O)[C@@H](NC(=O)OC(C)(C)C)c3ccccc3)C(C)=C1C2(C)C [cabazitaxel, 4-acetyloxy-2α-benzoyloxy-5β,20-epoxy-1-hydroxy-7β, 10β-dimethoxy-9-oxotax-11-en-13 α-yl(2R,3S)-3-t-butoxycarbonylamino-2-hydroxy-3-phenylpropionate]
cannot be fully dissolved: dissolved state in oil for injection ([2]; castor oil, Concentration (mg/g) 10 h) | dissolved state in oil for injection ([2]; olive oil, Concentration (mg/g) 10 h) | dissolved state in oil for injection ([2]; palm oil, Concentration (mg/g) 10 h) | dissolved state in oil for injection ([2]; soybean oil, Concentration (mg/g) 10 h)
rapidly dissolved: dissolved state in oil for injection ([2]; medium chain triglyceride, Concentration (mg/g) 60 h)
less than 10 mg/g: solubility in long chain oils ([2]; long chain oils such as soybean oil, olive oil, castor oil, palm oil)
almost insoluble: solubility in water [1]
soluble: solubility in ethanol and other organic solvents [1]
—: dissolved state in oil for injection ([2]; castor oil, Concentration (mg/g) 20 h) | dissolved state in oil for injection ([2]; castor oil, Concentration (mg/g) 30 h) | dissolved state in oil for injection ([2]; castor oil, Concentration (mg/g) 40 h) | dissolved state in oil for injection ([2]; castor oil, Concentration (mg/g) 50 h) | dissolved state in oil for injection ([2]; castor oil, Concentration (mg/g) 60 h) | dissolved state in oil for injection ([2]; olive oil, Concentration (mg/g) 20 h) | dissolved state in oil for injection ([2]; olive oil, Concentration (mg/g) 30 h) | dissolved state in oil for injection ([2]; olive oil, Concentration (mg/g) 40 h) | dissolved state in oil for injection ([2]; olive oil, Concentration (mg/g) 50 h) | dissolved state in oil for injection ([2]; olive oil, Concentration (mg/g) 60 h) | dissolved state in oil for injection ([2]; palm oil, Concentration (mg/g) 20 h) | dissolved state in oil for injection ([2]; palm oil, Concentration (mg/g) 30 h) | dissolved state in oil for injection ([2]; palm oil, Concentration (mg/g) 40 h) | dissolved state in oil for injection ([2]; palm oil, Concentration (mg/g) 50 h) | dissolved state in oil for injection ([2]; palm oil, Concentration (mg/g) 60 h) | dissolved state in oil for injection ([2]; soybean oil, Concentration (mg/g) 20 h) | dissolved state in oil for injection ([2]; soybean oil, Concentration (mg/g) 30 h) | dissolved state in oil for injection ([2]; soybean oil, Concentration (mg/g) 40 h) | dissolved state in oil for injection ([2]; soybean oil, Concentration (mg/g) 50 h) | dissolved state in oil for injection ([2]; soybean oil, Concentration (mg/g) 60 h)
about 50 mg/g: solubility in medium chain triglycerides [2] | solubility in medium chain triglyceride for injection ([2]; after storage at low temperature (4-6° C.) for 72 h)

Tween-80
≥ 3: grade of allergic reactions (Beagle dogs)
